Data on five molecules can be found in patent US8487096B2, “Imidazo[1,2-B][1,2,4]triazines as C-MET inhibitors” (Incyte Corporation, priority 2010, dated 2013).

c-Met kinase (histidine-tagged c-Met catalytic domain fusion protein), sequence (P08581 1078-1345): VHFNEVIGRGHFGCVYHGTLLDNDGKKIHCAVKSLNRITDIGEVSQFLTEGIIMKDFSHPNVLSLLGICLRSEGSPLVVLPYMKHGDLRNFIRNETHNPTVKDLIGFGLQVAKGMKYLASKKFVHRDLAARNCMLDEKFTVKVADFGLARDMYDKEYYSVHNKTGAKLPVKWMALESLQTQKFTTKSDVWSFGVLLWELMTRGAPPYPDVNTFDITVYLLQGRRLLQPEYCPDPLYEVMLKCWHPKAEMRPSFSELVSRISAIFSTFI

For the assay, the target named is c-Met kinase (histidine-tagged c-Met catalytic domain fusion protein) (Homo sapiens (Human), UniProt P08581). Briefly: In Vitro c-Met Kinase Enzyme Assays. Type of assay: biochemical. Particulars: inhibition of c-Met kinase; phosphorylation of poly Glu-Tyr, 5 μM ATP, 25 minutes at 30° C. How it is done:
The compounds of the invention were screened in vitro for their ability to inhibit c-Met kinase activity. The IC50 values for the inhibition of c-Met kinase were determined as described in the literature with some modifications (Wang, X. et al, Mol. Cancer. Ther. 2003, 2(11):1085-1092; Calic, M. et al., Croatica Chemical ACTA. 2005, 78(3):367-374). Briefly, histidine-tagged c-Met catalytic domain fusion protein (Invitrogen, # PV3143) was used for the assay. IC50 measurements were based on the degree of phosphorylation of poly Glu-Tyr (Sigma-Aldrich, # PO275) that was coated (0.01 mg/per well) on 96-well microplates (R&D systems, # DY990). The reaction was carried out in a 50 μL solution containing 50 mM HEPES (pH 7.5), 10 mM MnCl2, 10 mM MgCl2, 0.5 mM DTT, 100 μM Na3VO4, 5 μM ATP (Cell Signaling Technology, #9804) and serial dilutions of the test compound. The reaction lasted for 25 minutes at 30° C. After the reaction was completed, the contents of the plates were discarded. Plates were then washed with TBS-T (250 μL/well, 5×) and then blocked with TBS-T containing 1% BSA for 2 hours. The contents of the plates was discarded, and 100 μL (per well) of peroxidase-labeled anti-phospho-tyrosine antibody (Sigma, # A5964) diluted (1:60,000) in 1% BSA containing TBS-T were then added and incubated for 1 hour. Plates were washed with TBS-T (250 μL/well, 5×) and followed by the color reaction using 100 μL (1:1 mixture) of H2O2 and tetramethylbenzidine (R&D Systems, # DY999). The reaction was stopped in minutes with […] of 2 N H2SO4. The optical density was measured immediately using a microplate reader at 450 nm with wavelength correction at 540 nm. IC50 values were calculated with the GraphPad Prism software. The linear range (i.e., the time period over which the rate remained equivalent to the initial rate) was determined for the kinase and IC50 determinations were performied within this range.
One may read the IC50 as the concentration needed to halve the response being measured. In the case of `C[C@@H](O)CNC(=O)c1ccc(-c2cnc3ncc(Cc4ccc5ncccc5c4)n3n2)cc1F` [Formula I, 2-fluoro-N-[(2R)-2-hydroxypropyl]-4-[7-(quinolin-6-ylmethyl)imidazo[1,2-b][1,2,4]triazin-2-yl]benzamide], the IC50 lay within 0.1 to 1 nM.

For `CNC(=O)c1ccc(-c2cnc3ncc(Cc4ccc5ncccc5c4)n3n2)cc1Cl` [Formula II, 2-chloro-N-methyl-4-(7-(quinolin-6-ylmethyl)imidazo[1,2-b][1,2,4]triazin-2-yl)benzamide], the half-inhibitory concentration (IC50) was 0.1 to 1 nM.

In turn, `Cc1nc([C@H](C)NC(=O)c2ccc(-c3cnc4ncc(Cc5ccc6ncccc6c5)n4n3)cc2Cl)no1` [Formula III, 2-chloro-N-[(1S)-1-(5-methyl-1,2,4-oxadiazol-3-yl)ethyl]-4-[7-(quinolin-6-ylmethyl)imidazo[1,2-b][1,2,4]triazin-2-yl]benzamide] displayed an IC50 of 0.1 to 1 nM.

Molecule `CNC(=O)c1ccc(-c2cnc3ncc(Cc4ccc5ncccc5c4)n3n2)cn1` [Formula IV, N-methyl-5-[7-(quinolin-6-ylmethyl)imidazo[1,2-b][1,2,4]triazin-2-yl]pyridine-2-carboxamide] came in with an IC50 of 0.1 to 1 nM.

On to `CNC(=O)c1ccc(-c2cnc3ncc(Cc4ccc5ncccc5c4)n3n2)cc1C` [Formula V, N,2-dimethyl-4-[7-(quinolin-6-ylmethyl)imidazo[1,2-b][1,2,4]triazin-2-yl]benzamide], for which the half-maximal inhibitory concentration (IC50) fell in the range of 0.1 to 1 nM.
